The target in series [1] is T1, β-secretase(BACE) (Homo sapiens, UniProt P56817).
T1 construct: purchased Panvera
The series is described as follows: BACE % Inhibition Assay ((Aedens)-[…]-(Dabcyl K-amide) substrate). Format: biochemical. The note with it: % error ±10%, read-out: % Inhibition; for inhibition at 3 µM: 3 μM test compound; for inhibition at 10 µM: 10 μM test compound. The protocol:
The substrate stock solution was prepared in DMSO as a 10 mg/mL solution. The substrate working solution was prepared by diluting the 10 mg/mL stock solution with substrate assay buffer to a final concentration of 300 μg/mL. The β-secretase (BACE) working solution was prepared by diluting a 0.83 mg/mL BACE stock solution with enzyme assay buffer to a final concentration of 4 μg/mL.
Test compounds were dissolved in DMSO to 10 mM.
The screening procedure for this assay was as follows: 15 μL of BACE working solution was pipetted into each well of a 96-well plate. To each well was then pipetted 2 μL of test compound at the selected concentration. Test compound and BACE were then mixed with a pipettor and incubated for 20 min at room temperature. To each well was then added 10 μL of the substrate working solution. The plates were then incubated for 1 hour at room temperature.
The procedure for the blank was as follows. 15 μL of assay buffer was pipetted into each well to be used as a blank control. To each well was then added 2 μL of vehicle and 10 μL of substrate working solution. The plates were then incubated for 1 hour at room temperature.
The procedure for the positive control was as follows: 15 μl of BACE working solution was pipetted into each well to be used as a positive control. To each well was then pipetted 2 μL of vehicle. Vehicle and BACE were then mixed with a pipettor and incubated for 20 min at room temperature. To each well was then added 10 μL of the substrate working solution. The plates were then incubated for 1 hour at room temperature.
For test compounds, % inhibition was determined at each concentration as follows: […]

The target in series [2] is T1, β-secretase(BACE). Put plainly: BACE Assay-2 (FS1 substrate, IC50 and Ki). In kind it is biochemical. The note with it: procedure of Example 159, FS1 substrate; for Ki: read-out: Ki μM (159).
Series [3] has as its target T1, β-secretase(BACE). Put plainly: BACE Assay-1 (MCA-substrate, IC50). In kind it is biochemical. The note with it: procedure of Example 158; read-out: IC50 μM (158). The gist of the method: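 Human BACE (work solution 10 μg/mL) with MCA-peptide substrate (stock 2.0 mg/mL) in 0.05 M citrate buffer, pH 5.0, with PEG8000. Fluorescence read at T0 and T60; compounds tested at multiple concentrations and IC50 calculated from these readings.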

Series [4] addresses T1, β-secretase(BACE). The series is described as follows: BACE FS1% Inhibition Assay. Format: biochemical. The conditions noted are these: FS1 substrate; for inhibition at 0.3 µM: 0.3 μM test compound; for inhibition at 1 µM: 1 μM test compound; for inhibition at 3 µM: 3 μM test compound. The gist of the method: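 Percent inhibition at each tested concentration, referenced to enzyme-free blank and vehicle-only positive control. Reaction: compound and BACE (4 μg/mL working stock) mixed 20 min at room temperature before FS1 substrate (300 μg/mL working stock), then 1 h at room temperature.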

The next series has as its target human BACE-1 (Homo sapiens, UniProt P56817). The series is described as follows: BACE Assay (CEREP). In kind it is biochemical. The note with it: recombinant enzyme, 60 min at 37° C., pH 4.5; for inhibition at 0.3 µM: test compound 0.3 μM. The protocol: The test compound, reference compound or water (control) were added to a buffer containing 0.09 M sodium acetate (pH 4.5) and 0.25 μg BACE-1. Compound interference with the fluorimetric detection method due to autofluorescence was then checked by measurements at the wavelengths defined to evaluate the enzyme activity. […] For control basal measurement, the substrate was omitted from the reaction mixture. […] The standard inhibitory reference compound was OM99-2, which was tested in each experiment at several concentrations to obtain an inhibition curve from which its IC50 value was calculated.

[5] abbreviates: read-out: % Inhibition (FS) 0.3 μM.
Setting [6] is: read-out: % Inhibition (FS) 1 μM.
[7] abbreviates: read-out: % Inhibition (FS) 3 μM.

SMILES strings stand for the structures. pIC50: −log10 of the molar value. Read-outs that look alike come from different tables or passages of the source.

T1 sequence (P56817 46-501): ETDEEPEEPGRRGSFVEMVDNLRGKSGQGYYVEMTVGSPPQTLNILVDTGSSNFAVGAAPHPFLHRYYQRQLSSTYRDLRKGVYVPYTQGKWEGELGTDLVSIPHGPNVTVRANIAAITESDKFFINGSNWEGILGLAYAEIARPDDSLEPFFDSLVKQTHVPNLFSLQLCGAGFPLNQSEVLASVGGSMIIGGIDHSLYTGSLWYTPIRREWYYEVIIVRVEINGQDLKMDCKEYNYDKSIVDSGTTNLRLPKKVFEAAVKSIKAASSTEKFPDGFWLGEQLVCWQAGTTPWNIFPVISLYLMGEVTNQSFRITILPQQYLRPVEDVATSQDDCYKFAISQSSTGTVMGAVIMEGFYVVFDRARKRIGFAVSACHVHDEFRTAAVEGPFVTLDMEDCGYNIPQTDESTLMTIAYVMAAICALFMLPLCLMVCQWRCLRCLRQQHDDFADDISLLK
Chain of human BACE-1 (P56817 46-501): as above

For the compound `NC1=Nc2ccc(Oc3ccccc3)cc2CN1Cc1cccc(C(=O)N(C2CCCCC2)C2CCCCC2)c1` [Compound 98], the inhibition at 3 µM at β-secretase(BACE) [1] was found to be 76%; at β-secretase(BACE) [4] (setting [7]) it was 114%. Also, the inhibition at 10 µM at β-secretase(BACE) [1] turned out to be 99%. Also, the IC50 against β-secretase(BACE) [2] was 2.3 µM; on β-secretase(BACE) [3], 0.2 µM. For the same compound, the Ki at β-secretase(BACE) [2] amounted to 1.1 µM. For the same compound, the inhibition at 0.3 µM on β-secretase(BACE) [4] (setting [5]) amounted to 49%. For the same compound, the inhibition at 1 µM at β-secretase(BACE) [4] (setting [6]) is 93%.

As for `CN(C(=O)c1cccc(CN2Cc3cc(Oc4cccc(NS(=O)(=O)c5ccccc5)c4)ccc3N=C2N)c1)C1CCCCC1` [Compound 110], on β-secretase(BACE) [1], the inhibition at 3 µM turned out to be 75% and the inhibition at 10 µM was 96%. For the same compound, at β-secretase(BACE) [2], it took 1.24 µM to reach half-maximal inhibition (IC50) and the Ki turned out to be 0.4 µM. Further, the IC50 on β-secretase(BACE) [3] is 0.053 µM. In addition, the inhibition at 0.3 µM at β-secretase(BACE) [4] (setting [5]) was below 30%. In addition, the inhibition at 1 µM at β-secretase(BACE) [4] (setting [6]) worked out at 30%. Moreover, the inhibition at 3 µM at β-secretase(BACE) [4] (setting [7]) turned out to be 84%.

Regarding `CC(=O)OCC1OC(OCCN(C(=O)CCC(C2CCCCC2)N2Cc3cc(Oc4ccccc4)ccc3N=C2N)C2CCCCC2)C(OC(C)=O)C(OC(C)=O)C1OC(C)=O` (stereo not shown) [Compound 797], at human BACE-1, the pIC50 was 6.92 and the inhibition at 0.3 µM was found to be 95%.

As to `NC1=Nc2ccc(Oc3ccccc3)cc2CN1[C@@H](CCC(=O)N(CCO[C@@H]1O[C@H](CO)[C@@H](O)[C@H](O)[C@H]1O)C1CCCCC1)C1CCCCC1` [Compound 798, 4-(2-Amino-6-phenoxy-4H-quinazolin-3-yl)-4S,N-dicyclohexyl-N-[2R-(3R,4S,5S-trihydroxy-6R-hydroxymethyl-tetrahydro-pyran-2-yloxy)-ethyl]-butyramide], on human BACE-1, the pIC50 was 7.13 and the inhibition at 0.3 µM was determined as 95%.

Turning to `NC1=Nc2ccc(Oc3ccccc3)cc2CN1[C@@H](CCC(=O)N1C2CCCCC2C[C@H]1C(=O)O)C1CCCCC1` (stereo partly drawn) [Compound 795, 1-[4-(2-Amino-6-phenoxy-4H-quinazolin-3-yl)-4S-cyclohexyl-butyryl]-octahydro-indole-2S-carboxylic acid], at human BACE-1, the pIC50 is 6.82 and the inhibition at 0.3 µM was found to be 98%.

Turning to `NC1=Nc2ccc(Oc3ccccc3)cc2CN1CCNC(=O)c1ccccc1` [Compound 154], the pIC50 on human BACE-1 is below 6.00. Moreover, the Ki at β-secretase(BACE) [2] was determined as 0.61 µM. The inhibition at 3 µM at β-secretase(BACE) [4] (setting [7]) turned out to be 56%. The inhibition at 10 µM at β-secretase(BACE) [4] (10 μM test compound, read-out: % Inhibition (FS) 10 μM) stood at 79%.

Regarding `CN(C(=O)CCN1Cc2cc(C(=O)c3ccccc3)ccc2N=C1N)C1CCCCC1`, the melting point was determined as 198.1 °C.

`NC1=Nc2ccc(Oc3ccccc3)cc2CN1[C@@H](CCC(=O)N(Cc1nc[nH]n1)C1CCCCC1)C1CCCCC1` [Compound 790]: at human BACE-1, the negative logarithm of the IC50 (pIC50) was 7.03 and the inhibition at 0.3 µM is 98%.

Turning to `NC1=Nc2ccc(Oc3ccccc3)cc2CN1[C@@H](CCC(=O)N(Cc1ncc[nH]1)C1CCCCC1)C1CCCCC1` [Compound 788], on human BACE-1, the pIC50 is 6.80 and the inhibition at 0.3 µM was 97%. At β-secretase(BACE) [4] (read-out: % Inhibition (FS)), the inhibition at 0.3 µM was 110%, the inhibition at 1 µM was 114% and the inhibition at 3 µM was 118%.

With `NC1=Nc2ccc(Oc3ccccc3)cc2CN1[C@@H](CCC(=O)N(Cc1cnc[nH]1)C1CCCCC1)C1CCCCC1` [Compound 796], the pIC50 at human BACE-1 was 6.72.

Consider `NC1=Nc2ccc(Oc3ccccc3)cc2CN1[C@@H](CCC(=O)N(Cc1ccncc1)C1CCCCC1)C1CCCCC1` [Compound 789], for which, on human BACE-1, the pIC50 was 7.11 and the inhibition at 0.3 µM is 94%. Also, on β-secretase(BACE) [4] (read-out: % Inhibition (FS)), the inhibition at 0.3 µM was 80%, the inhibition at 1 µM worked out at 99% and the inhibition at 3 µM is 106%.

As usually defined, the inhibition is the change of the read-out against control, counted positive when it falls. As a reminder, the IC50 is the concentration that gives 50% inhibition. Broadly, the Ki is a measure of affinity in units of concentration, obtained from inhibition or displacement. Usually pIC50 stands for the IC50 on a negative log10 scale, so that one unit is a factor of ten. As a reminder, the melting point is the temperature of the solid-liquid transition.

These data come from patent US8383637B2, “2-amino-quinazoline derivatives useful as inhibitors of β-secretase (BACE)” (Jansssen Pharmaceutica N.V., priority 2004, dated 2013).
